For five compounds, IC50 results are on record in US7750154B2, “Amide derivatives” (AstraZeneca AB, priority 2003, dated 2010).

The subject of assay [1] is TNFα production in human whole blood. Briefly: Human whole blood assay, LPS-stimulated TNFα production. Format: cell-based. The following applies: inhibition of TNFα production. The procedure: The ability of a test compound to inhibit TNFα production was also assessed in a human whole blood assay. Human whole blood secretes TNFα when stimulated with LPS. […] Plates were incubated for 30 minutes at 37° C. (humidified incubator), prior to addition of 20 μl LPS (final concentration 10 μg/ml). Culture medium was added to control wells. Six “LPS alone” and six “medium alone” controls were included on each plate. A known TNFα synthesis/secretion inhibitor was included in each test. Plates were incubated for 6 hours at 37° C. (humidified incubator). Plates were centrifuged (2000 rpm for 10 minutes) and 80 μl plasma removed and stored at −80° C. (Corning 3799 plates). TNFα levels were measured by ELISA using paired antibodies from R&D Systems (catalogue nos. MAB610 and BAF210).

Assay [2] has as its target T1, p38α (Homo sapiens, UniProt Q16539).
T1 construct: c-myc (N); 6His (N); made in house; host or cells: E. coli (PET vectors)
Briefly: In vitro enzyme assay, p38α kinase. Format: biochemical.

The term IC50 denotes the concentration at which inhibition is half-maximal.

T1 sequence (Q16539 whole entry): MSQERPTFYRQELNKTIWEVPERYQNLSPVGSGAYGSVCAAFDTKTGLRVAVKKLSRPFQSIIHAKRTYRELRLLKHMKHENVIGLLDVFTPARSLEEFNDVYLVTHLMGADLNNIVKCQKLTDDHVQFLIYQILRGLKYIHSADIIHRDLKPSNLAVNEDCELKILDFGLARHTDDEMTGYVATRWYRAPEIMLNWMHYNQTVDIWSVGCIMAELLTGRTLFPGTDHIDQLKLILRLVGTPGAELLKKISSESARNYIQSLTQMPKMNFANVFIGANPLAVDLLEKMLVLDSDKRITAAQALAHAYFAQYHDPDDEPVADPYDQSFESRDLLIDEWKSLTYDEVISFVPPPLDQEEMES

As for `CCCN1CCCN(c2ccc3ncn(-c4cc(C(=O)NC5CC5)ccc4C)c(=O)c3c2)CC1` [Example 7, N-cyclopropyl-4-methyl-3-[4-oxo-6-(4-propyl-1,4-diazepan-1-yl)quinazolin-3(4H)-yl]benzamide], the IC50 stood at 34 nM in assay [1] and 8 nM in assay [2].

`Cc1ccc(NC(=O)c2ccnc(Cl)c2)cc1-n1cnc2ccc(N3CCN(C)CC3)cc2c1=O` [Comparator Compound A, 3-[5-(2-chloropyrid-4-ylcarbonylamino)-2-methylphenyl]-6-(4-methylpiperazin-1-yl)-3,4-dihydroquinazolin-4-one, reference compound]: the IC50 in assay [1] is 3710 nM; in assay [2] it was 277 nM.

Regarding `Cc1ccc(C(=O)NC2(C)CC2)cc1-n1cnc2ccc(N3CCN(C)CC3)cc2c1=O` [6 (a), 4-methyl-N-(1-methylcyclopropyl)-3-[6-(4-methylpiperazin-1-yl)-4-oxoquinazolin-3(4H)-yl]benzamide], the IC50 in assay [1] came out at 351 nM; in assay [2], 81 nM.

For the compound `Cc1ccc(C(=O)NC2CC2)cc1-n1cnc2ccc(OCCN(C)C)cc2c1=O` [Example 24, N-Cyclopropyl-3-[6-[2-(dimethylamino)ethoxy]-4-oxoquinazolin-3(4H)-yl]-4-methylbenzamide], the IC50 in assay [1] came out at 17 nM; in assay [2], 19 nM.

Turning to `Cc1ccc(NC(=O)c2cc(F)cc(F)c2)cc1-n1cnc2ccc(N3CCN(C)CC3)cc2c1=O` [Comparator Compound B, 3-[5-(3,5-difluorobenzamido)-2-methylphenyl]-6-(4-methylpiperazin-1-yl)-3,4-dihydroquinazolin-4-one, reference compound], the IC50 in assay [1] was 3850 nM; in assay [2], 41 nM.
